ChEMBL document CHEMBL1129662, “Investigation of (Oxodioxolenyl)methyl carbamates as nonchiral bioreversible prodrug moieties for chiral amines” (J Med Chem, 1996)

What was measured:
[1] = First order rate data for the hydrolysis of compound in rat plasma hydrolysis medium; Half-life in minutes; format: ADME
[2] = First order rate data for the hydrolysis of compound in 0.1 M hydrochloric acid pH 1 hydrolysis medium; Half-life in minutes; format: ADME
[3] = First order rate data for the hydrolysis of compound in dog plasma hydrolysis medium; Half-life in minutes; format: ADME, Canis lupus familiaris
[4] = First order rate data for the hydrolysis of compound in 0.05 M phosphate buffer pH 7.4 hydrolysis medium; Half-life in minutes; format: ADME
[5] = First order rate data for the hydrolysis of compound in 0.1 M hydrochloric acid pH 1 hydrolysis medium (adinotes no detectable hydrolysis after 48 h); Half-life in minutes; format: ADME

Work on COc1ccc(-c2oc(=O)oc2COC(=O)NCCc2ccc(OC)c(OC)c2)cc1 yielded a half-life [1] of 0.0333 h, a half-life [2] of 53 h and a half-life [3] of 0.233 h. For the same compound, the half-life [4] was 3.45 h.

Work on COc1ccc(CCNC(=O)OCc2oc(=O)oc2-c2ccccc2)cc1OC yielded a half-life [1] of 0.0333 h, a half-life [2] of 59.2 h and a half-life [3] of 0.183 h. For the same compound, the half-life [4] was 2.23 h.

With COc1ccc(CCNC(=O)OCc2oc(=O)oc2C)cc1OC the half-life [1] was 0.183 h, the half-life [5] was > 50 h and the half-life [4] was 4.3 h.
